Assay results published in patent publication US12162904B2, “Mannose derivative and application thereof” (priority 2021, dated 2024).

Columns and labels:
[1] = Stability in normal saline at room temperature (radiochemical purity by TLC); type: physicochemical; details: 4 h
Procedure: (§1) The radiochemical purity of ^99mTc-CN7DM was determined by TLC after being placed in normal saline at room temperature and in mouse serum at 37° C. for 4 h.

[2] = Determination of lipid-water partition coefficient (n-octanol/PBS); type: physicochemical; details: n-octanol / PBS 0.025 M, pH 7.4
Procedure: To a 5 mL centrifuge tube were added 100 μL of a ^99mTc-CN7DM solution with a radioactivity of 10 μCi, 1 mL of n-octanol and 900 μL of phosphate buffered saline (PBS) (0.025 M and pH 7.4). The mixture was vortexed at a rotation speed of 2,500 rpm for 3 min, subjected to standing for stratification, and centrifuged at 9,000 rpm in a centrifuge for 5 min. Three samples (each for 100 μL) were taken from each of the two phases, and determined by a γ-counter for the radioactivity counts.

[3] = Stability in mouse serum at 37° C. (radiochemical purity by TLC); type: in vitro ADME; details: 4 h
Procedure: as §1

mice bearing S180 tumors = test: Biodistribution determination in tumor-bearing mice; type: in vivo; details: for Blood uptake / Bone uptake / Heart uptake / Kidney uptake / Liver uptake / Lung uptake / Muscle uptake / Small intestine uptake / Spleen uptake / Thyroid gland uptake / Tumor uptake: n = 5, mean ± SD; for Tumor uptake: S180 tumor
Procedure: 0.1 mL of the ^99mTc-CN7DM labeling solution (370 kBq) was injected into mice bearing S180 tumors through the tail vein. After recording the injection time, the mice were subjected to sacrificing by cervical […] at different time points of 30 min and 120 min (5 mice were executed at each time), dissecting, taking out tissues or organs of interest such as heart, liver, lungs, kidneys, spleen, bone, muscles, small intestine, blood and tumors. A radioactivity count of each of the tissues or organs was measured by the γ-counter, and uptake value of each of the tissues or organs in % ID/g was obtained by converting a mass of each of the tissues or organs.

[4] = 30 min after tail vein injection
[5] = 120 min after tail vein injection

radiochemical purity after standing (stability) [1]: greater than 90%
log P (lipid-water partition coefficient) [2]: −3.15±0.06
radiochemical purity after standing (stability) [3]: greater than 90%
Tumor/Blood ratio (mice bearing S180 tumors; [4]): 3.79
Tumor/Muscle ratio (mice bearing S180 tumors; [4]): 3.25
Blood uptake (mice bearing S180 tumors; [4]): 1.61 ± 0.17 % ID/g
Bone uptake (mice bearing S180 tumors; [4]): 1.41 ± 0.17 % ID/g
Heart uptake (mice bearing S180 tumors; [4]): 2.08 ± 0.26 % ID/g
Kidney uptake (mice bearing S180 tumors; [4]): 6.22 ± 0.91 % ID/g
Liver uptake (mice bearing S180 tumors; [4]): 2.91 ± 0.23 % ID/g
Lung uptake (mice bearing S180 tumors; [4]): 1.86 ± 0.19 % ID/g
Muscle uptake (mice bearing S180 tumors; [4]): 1.88 ± 0.16 % ID/g
Small intestine uptake (mice bearing S180 tumors; [4]): 1.05 ± 0.20 % ID/g
Spleen uptake (mice bearing S180 tumors; [4]): 1.23 ± 0.11 % ID/g
Thyroid gland uptake (mice bearing S180 tumors; [4]): 0.04 ± 0.01 % ID
Tumor/Blood ratio (mice bearing S180 tumors; [5]): 63.48
Tumor/Muscle ratio (mice bearing S180 tumors; [5]): 6.18
Blood uptake (mice bearing S180 tumors; [5]): 0.09 ± 0.02 % ID/g
Bone uptake (mice bearing S180 tumors; [5]): 0.76 ± 0.17 % ID/g
Heart uptake (mice bearing S180 tumors; [5]): 1.40 ± 0.14 % ID/g
Kidney uptake (mice bearing S180 tumors; [5]): 3.12 ± 0.82 % ID/g
Liver uptake (mice bearing S180 tumors; [5]): 2.13 ± 0.46 % ID/g
Lung uptake (mice bearing S180 tumors; [5]): 0.76 ± 0.20 % ID/g
Muscle uptake (mice bearing S180 tumors; [5]): 0.96 ± 0.12 % ID/g
Small intestine uptake (mice bearing S180 tumors; [5]): 0.42 ± 0.13 % ID/g
Spleen uptake (mice bearing S180 tumors; [5]): 0.80 ± 0.15 % ID/g
Thyroid gland uptake (mice bearing S180 tumors; [5]): 0.02 ± 0.00 % ID
Tumor uptake (mice bearing S180 tumors; [4]): 6.11 ± 0.76 % ID/g
Tumor uptake (mice bearing S180 tumors; [5]): 5.92 ± 0.30 % ID/g
Structure (SMILES): [99Tc+].[C-]#[N+]CCCCCCCC(=O)NC1C(O)OC(CO)C(O)C1O.[C-]#[N+]CCCCCCCC(=O)NC1C(O)OC(CO)C(O)C1O.[C-]#[N+]CCCCCCCC(=O)NC1C(O)OC(CO)C(O)C1O.[C-]#[N+]CCCCCCCC(=O)NC1C(O)OC(CO)C(O)C1O.[C-]#[N+]CCCCCCCC(=O)NC1C(O)OC(CO)C(O)C1O.[C-]#[N+]CCCCCCCC(=O)NC1C(O)OC(CO)C(O)C1O (centres unmarked) [^99mTc-CN7DM]
